# From US12611405B2, “Agent that increases the expression of the BCL2-associated agonist of cell death for the treatment of cancer” (LDN Pharma Limited, priority 2017, dated 2026)
# Columns and labels:
# Assay type in all cases: cell-based
# MCF-7 cells = experiment: 6BN given concomitantly with gemcitabine or oxaliplatin, cell number and viability by trypan blue dye exclusion; conditions: 10 uM 6BN concomitantly with gemcitabine (0.5 uM) or oxaliplatin (0.5 uM), 48 h
# Description: The effect of combining 6BN with the chemotherapeutic agents gemcitabine or oxaliplatin was tested by culturing MCF-7 cells with 6BN (10 nM or 10 uM) concomitantly with gemcitabine (0.5 uM) or oxaliplatin (0.5 uM). Cell number and viability was then assessed after 48 h using trypan blue dye exclusion as a means to discriminate live/dead cells.
# HCT116 cells = experiment: Two-phase priming with 6-β-naltrexol then GEM or OXP, cell number and viability by trypan blue counting
# Description: (§1) The impact of combining 6-β-naltrexol with other chemotherapy agents was tested by culturing cells according to a treatment schedule that involved two phases of treatment. The first phase involved priming with 10 nM 6-β-naltrexol or 10 μM 6-β-naltrexol for 48 h, before treatment with another drug for a further 48 h. A549 and HCT116 cells were seeded into 6-well plates at a density of 2×10^5 cells/well and left to adhere overnight. Media was removed after 48 h, and cells were rinsed gently with drug-free medium. Fresh culture medium that contained gemcitabine (GEM) or oxaliplatin (OXP) was then added to the cells. The concentrations of the chemotherapy agents used were approximately ¼ IC50, as established previously [Liu W M, Fowler D W, Smith P, Dalgleish A G. Pre-treatment with chemotherapy can enhance the antigenicity and immunogenicity of tumours by promoting adaptive immune responses. Br J Cancer. 2010 Jan. 5; 102(1):115-23. doi: 10.1038/sj.bjc.6605465.]. Cells were then left for a further 48 h before assessment of cell number of viability by cell counting using trypan blue dye as a way of discriminating live and dead cells. Cytostasis was indicated by a reduction in cell number and no associated reduction in cell viability.
# A549 cells = experiment: as above
# Description: as §1
# [1] = tested on: BAD expression in breast cancer cell line MCF-7; experiment: BAD protein expression by western blotting; conditions: MCF-7, different concentrations of 6BN (FIG. 3)
# [2] = tested on: BAD expression in HCT116 colon cancer cells; experiment: Level of expression of BAD after 48 h culture, immunoblotting
# Description: In order to determine the effect of 6-β-naltrexol or naltrexone on the level of expression of BAD, pAKT, p21, cyclin B1 and CDK1 HCT116 colon cancer cells were seeded onto 6-well plates at a density of 2×10^5 cell/well, and allowed to adhere overnight. Cells were then cultured in the presence of naltrexone or 6-β-naltrexol at concentrations of 10 nM or 10 μM for a further 48 h. Cells were then harvested and processed for measurements of BAD, or pAKT, p21, cyclin B1 and CDK1 using standard immunoblotting techniques.
# [3] = 6-β-naltrexol priming 48 h in an amount raising BAD by at least 10%, then GEM or OXP at approx. ¼ IC50 for 48 h
structure (smiles),measurement,setting,value
"Oc1ccc2c3c1OC1[C@H](O)CC[C@@]4(O)[C@@H](C2)N(CC2CC2)CC[C@]314 (stereo partly drawn) [6-β-naltrexol, 17-(Cyclopropylmethyl)-4,5-epoxymorphinan-3,6 beta,14-triol]",effect on cell viability of the combination with chemotherapy,MCF-7 cells,greatest effect on cell viability
same,cytotoxicity of 6-β-naltrexol alone,"HCT116 cells; 10 nM or 10 μM 6BN, no chemotherapeutic agent (FIG. 2d)",absence of any independent increase in cytotoxicity
same,"cytotoxic effect of both chemotherapeutic agents (GEM, OXP) after priming",HCT116 cells; [3],increased
same,cytotoxicity of 6-β-naltrexol alone,"A549 cells; 10 nM or 10 μM 6BN, no chemotherapeutic agent (FIG. 2c)",absence of any independent increase in cytotoxicity
same,"cytotoxic effect of both chemotherapeutic agents (GEM, OXP) after priming",A549 cells; [3],increased
same,expression of the pro-apoptotic protein BAD,[1],dose dependent increase
same,effect on the level of expression of BAD,[2]; 10 nM,negligible effect
same,increase in the level of expression of BAD,[2]; 10 μM,more than 10%
"O=C1CC[C@@]2(O)[C@H]3Cc4ccc(O)c5c4[C@@]2(CCN3CC2CC2)[C@H]1O5 [naltrexone, reference compound]",effect on the level of expression of BAD,[2]; 10 nM,negligible effect
same,effect on the level of expression of BAD,[2]; 10 μM,negligible effect
